Laboratory results reported in patent US20150010928A1, “MEANS AND METHODS FOR ASSESSING AN ENDOCRINE DISEASE OR DISORDER” (priority 2012, published 2015).
Marks after values point to notes of the source that are not given here. Each block holds one compound with its values, some of them ahead of it.

Tested on: male rats
Assay: Plasma metabolite profiling (GC-MS, LC-MS, SPE-LC-MS) in male rats dosed once daily over 28 days (OECD 407)
Type: in vivo, rat
Set-up: key to erythro-Sphingoside (d18:1) / Tricosanoic acid (C23:0) / beta-Sitosterol / Tryptophan: ratio of treated group mean to untreated control group mean
Conditions: high dose
Summary of the method: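 Polar and lipid fractions profiled by GC-MS and LC-MS/MRM, steroids by online SPE-LC-MS; pool-normalized data compared to controls by Welch test as treatment ratios and p-values.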

Compound: C#C[C@]1(O)CC[C@H]2[C@@H]3CCc4cc(O)ccc4[C@H]3CC[C@@]21C [17-alpha-Ethynylestradiol]
Cholesterol (m7, Table 14b): 0.19 | Choline plasmalogen No 02 (m7, Table 14b): 0.28 | Lignoceric acid (C24:0) (m7, Table 14b): 0.2 | Sphingomyelin (d18:1, C16:0) (m7, Table 14b): 0.2 | Sphingomyelin (d18:2, C16:0) (m7, Table 14b): 0.19 | erythro-Sphingosine (d18:1) (m7, Table 14b): 0.09 | 3,4-Dihydroxyphenylacetic acid (DOPAC) (m7, Table 12d): 1.01 | Choline plasmalogen No 02 (m7, Table 12d): 0.28 * | Choline plasmalogen No 03 (m7, Table 12d): 0.41 * | Coenzyme Q10 (m7, Table 12d): 0.16 * | Elaidic acid (C18:trans[9]1) (m7, Table 12d): 0.54 * | Glycerol phosphate, lipid fraction (m7, Table 12d): 0.22 * | Glycerol, polar fraction (m7, Table 12d): 0.68 * | Lysophosphatidylcholine (C17:0) (m7, Table 12d): 0.38 * | Lysophosphatidylcholine (C18:0) (m7, Table 12d): 0.77 * | Lysophosphatidylcholine (C20:4) (m7, Table 12d): 0.78 * | Lysophosphatidylethanolamine (C22:0) (m7, Table 12d): 0.28 * | Phosphatidylcholine (C18:0, C20:3) (m7, Table 12d): 0.21 * | Phosphatidylcholine No 04 (m7, Table 12d): 0.17 * | Sphingomyelin (d18:1, C16:0) (m7, Table 12d): 0.32 * | Sphingomyelin (d18:2, C16:0) (m7, Table 12d): 0.19 * | Sphingomyelin (d18:2,C18:0) (m7, Table 12d): 0.24 * | Threonic acid (m7, Table 12d): 0.47 * | Tyrosine (m7, Table 12d): 1.09 | beta-Sitosterol (m7, Table 12d): 0.3 * | myo-Inositol, lipid fraction (m7, Table 12d): 0.22 * | Cholesterol (m14, Table 14b): 0.24 | Choline plasmalogen No 02 (m14, Table 14b): 0.46 | Lignoceric acid (C24:0) (m14, Table 14b): 0.21 | Sphingomyelin (d18:1, C16:0) (m14, Table 14b): 0.37 | Sphingomyelin (d18:2, C16:0) (m14, Table 14b): 0.24 | erythro-Sphingosine (d18:1) (m14, Table 14b): 0.13 | 3,4-Dihydroxyphenylacetic acid (DOPAC) (m14, Table 12d): 0.58 * | Choline plasmalogen No 02 (m14, Table 12d): 0.46 * | Choline plasmalogen No 03 (m14, Table 12d): 0.43 * | Coenzyme Q10 (m14, Table 12d): 0.31 * | Elaidic acid (C18:trans[9]1) (m14, Table 12d): 0.63 * | Glycerol phosphate, lipid fraction (m14, Table 12d): 0.31 * | Glycerol, polar fraction (m14, Table 12d): 0.84 | Lysophosphatidylcholine (C17:0) (m14, Table 12d): 0.58 * | Lysophosphatidylcholine (C18:0) (m14, Table 12d): 0.84 * | Lysophosphatidylcholine (C20:4) (m14, Table 12d): 0.83 * | Lysophosphatidylethanolamine (C22:0) (m14, Table 12d): 0.45 * | Phosphatidylcholine (C18:0, C20:3) (m14, Table 12d): 0.47 * | Phosphatidylcholine No 04 (m14, Table 12d): 0.42 * | Sphingomyelin (d18:1, C16:0) (m14, Table 12d): 0.4 * | Sphingomyelin (d18:2, C16:0) (m14, Table 12d): 0.24 * | Sphingomyelin (d18:2,C18:0) (m14, Table 12d): 0.18 * | Threonic acid (m14, Table 12d): 0.52 * | Tyrosine (m14, Table 12d): 0.96 | beta-Sitosterol (m14, Table 12d): 0.38 * | myo-Inositol, lipid fraction (m14, Table 12d): 0.29 * | Cholesterol (m28, Table 14b): 0.39 | Choline plasmalogen No 02 (m28, Table 14b): 0.55 | Lignoceric acid (C24:0) (m28, Table 14b): 0.43 | Sphingomyelin (d18:1, C16:0) (m28, Table 14b): 0.44 | Sphingomyelin (d18:2, C16:0) (m28, Table 14b): 0.34 | erythro-Sphingosine (d18:1) (m28, Table 14b): 0.24 | 3,4-Dihydroxyphenylacetic acid (DOPAC) (m28, Table 12d): 0.96 | Choline plasmalogen No 02 (m28, Table 12d): 0.55 * | Choline plasmalogen No 03 (m28, Table 12d): 0.48 * | Coenzyme Q10 (m28, Table 12d): 0.37 * | Elaidic acid (C18:trans[9]1) (m28, Table 12d): 0.48 * | Glycerol phosphate, lipid fraction (m28, Table 12d): 0.29 * | Glycerol, polar fraction (m28, Table 12d): 0.63 * | Lysophosphatidylcholine (C17:0) (m28, Table 12d): 0.67 * | Lysophosphatidylcholine (C18:0) (m28, Table 12d): 0.89 * | Lysophosphatidylcholine (C20:4) (m28, Table 12d): 0.88 * | Lysophosphatidylethanolamine (C22:0) (m28, Table 12d): 0.54 * | Phosphatidylcholine (C18:0, C20:3) (m28, Table 12d): 0.79 * | Phosphatidylcholine No 04 (m28, Table 12d): 0.64 * | Sphingomyelin (d18:1, C16:0) (m28, Table 12d): 0.65 * | Sphingomyelin (d18:2, C16:0) (m28, Table 12d): 0.34 * | Sphingomyelin (d18:2,C18:0) (m28, Table 12d): 0.41 * | Threonic acid (m28, Table 12d): 0.54 * | Tyrosine (m28, Table 12d): 0.83 * | beta-Sitosterol (m28, Table 12d): 0.7 * | myo-Inositol, lipid fraction (m28, Table 12d): 0.53 *

Cholesterol (m7, Table 14b): 0.75 | Choline plasmalogen No 02 (m7, Table 14b): 0.89 | Lignoceric acid (C24:0) (m7, Table 14b): 0.7 | Sphingomyelin (d18:1, C16:0) (m7, Table 14b): 0.68 | Sphingomyelin (d18:2, C16:0) (m7, Table 14b): 0.74 | erythro-Sphingosine (d18:1) (m7, Table 14b): 0.62 | Cholesterol (m14, Table 14b): 0.72 | Choline plasmalogen No 02 (m14, Table 14b): 0.68 | Lignoceric acid (C24:0) (m14, Table 14b): 0.68 | Sphingomyelin (d18:1, C16:0) (m14, Table 14b): 0.71 | Sphingomyelin (d18:2, C16:0) (m14, Table 14b): 0.73 | erythro-Sphingosine (d18:1) (m14, Table 14b): 0.58 | Cholesterol (m28, Table 14b): 0.69 | Choline plasmalogen No 02 (m28, Table 14b): 0.74 | Lignoceric acid (C24:0) (m28, Table 14b): 0.67 | Sphingomyelin (d18:1, C16:0) (m28, Table 14b): 0.7 | Sphingomyelin (d18:2, C16:0) (m28, Table 14b): 0.63 | erythro-Sphingosine (d18:1) (m28, Table 14b): 0.52
Compound: OCCNCCO [Diethanolamine]

Compound: Cc1cccc(C)c1N(Cn1cccn1)C(=O)CCl [Metazachlor]
3-O-Methylsphingosine (d18:1) (m7, Table 10a): 2.88 * | 5-O-Methylsphingosine (d18:1) (m7, Table 10a): 3.04 * | Cysteine (m7, Table 10a): 1.07^ | Lignoceric acid (C24:0) (m7, Table 10a): 1.6 * | Nervonic acid (C24:cis[15]1) (m7, Table 10a): 3.17 * | Oleic acid (C18:cis[9]1) (m7, Table 10a): 1.09^ | Stearic acid (C18:0) (m7, Table 10a): 1.45 * | alpha-Tocopherol (m7, Table 10a): 1.71 * | erythro-Sphingoside (d18:1) (m7, Table 10a): 2.3 * | threo-Sphingosine (d18:1) (m7, Table 10a): 2.18 * | Oleic acid (C18:cis[9]1) (m7, Table 10b): 1.09 | Phosphatidylcholine (C16:0, C16:0) (m7, Table 10b): 0.98 | Thyroxine (T4) (m7, Table 10b): 0.98 | trans-4-Hydroxyproline (m7, Table 10b): 0.93 | 3-O-Methylsphingosine (d18:1) (m14, Table 10a): 4.31 * | 5-O-Methylsphingosine (d18:1) (m14, Table 10a): 4.66 * | Cysteine (m14, Table 10a): 0.86 | Lignoceric acid (C24:0) (m14, Table 10a): 2.38 * | Nervonic acid (C24:cis[15]1) (m14, Table 10a): 4 * | Oleic acid (C18:cis[9]1) (m14, Table 10a): 1.82 * | Stearic acid (C18:0) (m14, Table 10a): 2.36 * | alpha-Tocopherol (m14, Table 10a): 2.2 * | erythro-Sphingoside (d18:1) (m14, Table 10a): 3.47 * | threo-Sphingosine (d18:1) (m14, Table 10a): 3.13 * | Oleic acid (C18:cis[9]1) (m14, Table 10b): 1.82^ | Phosphatidylcholine (C16:0, C16:0) (m14, Table 10b): 0.83 * | Thyroxine (T4) (m14, Table 10b): 0.56 * | trans-4-Hydroxyproline (m14, Table 10b): 0.72 * | 3-O-Methylsphingosine (d18:1) (m28, Table 10a): 4.4 * | 5-O-Methylsphingosine (d18:1) (m28, Table 10a): 4.51 * | Cysteine (m28, Table 10a): 1.41 * | Lignoceric acid (C24:0) (m28, Table 10a): 2.11 * | Nervonic acid (C24:cis[15]1) (m28, Table 10a): 3.63 * | Oleic acid (C18:cis[9]1) (m28, Table 10a): 1.82 * | Stearic acid (C18:0) (m28, Table 10a): 2.59 * | alpha-Tocopherol (m28, Table 10a): 2.11 * | erythro-Sphingoside (d18:1) (m28, Table 10a): 3.68 * | threo-Sphingosine (d18:1) (m28, Table 10a): 3.33 * | Oleic acid (C18:cis[9]1) (m28, Table 10b): 1.82^ | Phosphatidylcholine (C16:0, C16:0) (m28, Table 10b): 0.79 * | Thyroxine (T4) (m28, Table 10b): 0.74^ | trans-4-Hydroxyproline (m28, Table 10b): 0.84 *
